Our source for the IC50 values is patent US11339136B2 (Novartis AG, priority 2016, dated 2022).

As a reminder, the IC50 is the midpoint of a concentration-inhibition curve. The low end stands for greater potency in that assay, the high end for weaker potency in that assay.

This assay concerns the target T1, hNLRP3 (Homo sapiens, UniProt Q96P20).
T1 construct: THP-1 cells were purchased from the American Type Culture Collection; host or cells: THP-1 cells, PMA-differentiated
Description: IL-1β production in PMA-differentiated THP-1 cells stimulated with gramicidin. The format is cell-based. The settings on record: gramicidin 5 μM, IL-1β in supernatant. The protocol:
Bioassay: IL-1β Production in PMA-Differentiated THP-1 Cells Stimulated with Gramicidin. Procedure 1:
Cell culture—THP-1 cells were purchased from the American Type Culture Collection and sub-cultured according to instructions from the supplier. Prior to experiments, cells were cultured in RPMI 1640 containing 10% heat inactivated FBS, penicillin (100 units/ml) and streptomycin (100 μg/ml), and maintained in log phase prior to experimental setup. Prior to the experiment THP-1 were treated with PMA (Phorbol 12-myristate 13-acetate) (10 μg/ml) for 24 hours. The day of the experiment the media was removed and attaching cells were treated with trypsin for 2 minutes, cells were then collected, washed with PBS (phosphate buffer saline), spin down, resuspended in 2% heat inactivated FBS with RPMI at a concentration of 1×10^6 cells/ml, and 100 ul was plated in a 96 well plate. Cells were incubated with compounds for 1 hours and then stimulated with Gramicidin (5 μM) (Enzo) for 2 hours. Cell free supernatant was collected and the production of IL-1β was evaluated by ELISA. Compounds were dissolved in dimethyl sulfoxide (DMSO) and added to the culture medium to achieve desired concentration (e.g. 100, 30, 10, 3, 1, 0.3 or 0.1 μM). A vehicle only control was run concurrently with each experiment. Final DMSO concentration was 1%.
THP-1 cells were purchased from the American Type Culture Collection and sub-cultured according to instructions from the supplier. Prior to experiments, cells were cultured in complete RPMI 1640 (containing 10% heat inactivated FBS, penicillin (100 units/ml) and streptomycin (100 μg/ml)), and maintained in log phase prior to experimental setup. Prior to the experiment THP-1 were treated with PMA (Phorbol 12-myristate 13-acetate) (20 ng/ml) for 16-18 hours. On the day of the experiment the media was removed and adherent cells were detached with trypsin for 5 minutes. Cells were then harvested, washed with complete RPMI 1640, spun down, resuspended in RPMI 1640 (containing 2% heat inactivated FBS, penicillin (100 units/ml) and streptomycin (100 μg/ml). The cells were plated in a 384-well plate at a density of 50,000 cells/well (final assay volume 50 μl). Compounds were dissolved in dimethyl sulfoxide (DMSO) and added to the culture medium to achieve desired concentration (e.g. 100, 33, 11, 3.7, 1.2, 0.41, 0.14, 0.046, 0.015, 0.0051, 0.0017 μM). Cells were incubated with compounds for 1 hour and then stimulated with gramicidin (5 μM) (Enzo) for 2 hours. Cell free supernatant was collected and the production of IL-1β was evaluated by HTRF (cisbio). A vehicle only control was run concurrently with each experiment. Final DMSO concentration was 0.38%.

T1 sequence (Q96P20 whole entry): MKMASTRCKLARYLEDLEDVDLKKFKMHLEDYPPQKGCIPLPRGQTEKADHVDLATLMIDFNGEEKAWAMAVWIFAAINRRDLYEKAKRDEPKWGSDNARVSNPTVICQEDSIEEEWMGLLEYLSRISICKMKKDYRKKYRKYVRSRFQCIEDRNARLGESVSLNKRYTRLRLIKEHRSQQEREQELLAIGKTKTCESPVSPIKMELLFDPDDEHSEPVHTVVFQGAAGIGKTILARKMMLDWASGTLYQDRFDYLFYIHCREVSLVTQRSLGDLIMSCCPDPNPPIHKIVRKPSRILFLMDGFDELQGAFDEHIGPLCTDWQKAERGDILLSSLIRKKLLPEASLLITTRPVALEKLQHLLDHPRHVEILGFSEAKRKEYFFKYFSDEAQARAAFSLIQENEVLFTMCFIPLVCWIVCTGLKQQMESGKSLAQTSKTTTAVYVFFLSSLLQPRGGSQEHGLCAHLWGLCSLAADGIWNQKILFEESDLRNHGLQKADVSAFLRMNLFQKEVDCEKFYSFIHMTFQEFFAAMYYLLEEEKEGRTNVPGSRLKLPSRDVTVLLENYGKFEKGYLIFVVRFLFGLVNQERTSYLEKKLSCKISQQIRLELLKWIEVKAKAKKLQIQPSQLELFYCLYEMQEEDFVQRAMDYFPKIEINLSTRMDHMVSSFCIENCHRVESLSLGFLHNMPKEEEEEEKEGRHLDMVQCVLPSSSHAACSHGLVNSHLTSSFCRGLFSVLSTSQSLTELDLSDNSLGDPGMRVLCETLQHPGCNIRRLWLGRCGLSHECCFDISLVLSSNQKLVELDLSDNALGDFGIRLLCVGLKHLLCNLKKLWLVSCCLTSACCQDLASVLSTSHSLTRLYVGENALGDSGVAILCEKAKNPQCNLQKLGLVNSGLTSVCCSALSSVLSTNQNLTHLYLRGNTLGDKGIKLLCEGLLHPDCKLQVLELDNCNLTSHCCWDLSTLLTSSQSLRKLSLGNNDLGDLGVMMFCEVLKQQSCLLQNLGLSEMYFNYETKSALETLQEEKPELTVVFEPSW

Turning to `CC(C)(O)c1cnc(S(=O)(=O)NC(=O)Nc2c3c(c(Cl)c4c2CCC4)CCC3)s1` [Compound 221, N-(8-chloro-1,2,3,5,6,7-hexahydros-indacen-4-ylcarbamoyl)-5-(2-hydroxypropan-2-yl)thiazole-2-sulfonamide], the half-inhibitory concentration (IC50) (Table 2) is < 1 µM.

The molecule `CC(C)c1ccc(Cl)c(C(C)C)c1NC(=O)NS(=O)(=O)c1cnc(C(C)(C)O)s1` [Compound 271] had an IC50 (Table 2) of 1 to 5 µM.

Turning to `CC(C)c1ccc(C#N)c(C(C)C)c1NC(=O)NS(=O)(=O)c1cc(C(C)(C)O)cs1` [Compound 262, N-(3-cyano-2,6-diisopropylphenylcarbamoyl)-4-(2-hydroxypropan-2-yl) thiophene-2-sulfonamide], the 50% inhibitory concentration (IC50) (Table 2) was 1 to 5 µM.

`CC(C)(O)c1cc(S(=O)(=O)NC(=O)Nc2c3c(cc4c2CCC4)CCC3)oc1Cl` [Compound 255, 5-chloro-N-(1,2,3,5,6,7-hexahydros-indacen-4-ylcarbamoyl)-4-(2-hydroxypropan-2-yl)furan-2-sulfonamide]: the IC50 (Table 2) was < 1 µM.

On to `CC(C)c1cc(C#N)cc(C(C)C)c1NC(=O)NS(=O)(=O)c1cc(C2(O)CC2)co1` [Compound 235, N-(4-cyano-2,6-diisopropylphenyl-carbamoyl)-4-(1-hydroxycyclo-propyl)furan-2-sulfonamide], for which the IC50 (Table 2) is < 1 µM.

On to `CC(C)c1cc(F)cc(C(C)C)c1NC(=O)NS(=O)(=O)c1cc(C(C)(C)O)co1` [Compound 115, N-(4-fluoro-2,6-diisopropylphenyl-carbamoyl)-4-(2-hydroxypropan-2-yl)furan-2-sulfonamide], for which the IC50 (Table 1) was < 1 µM.

In the case of `CC(C)c1cc(C#N)cc(C(C)C)c1NC(=O)NS(=O)(=O)c1cc(C(C)(C)O)co1` [Compound 104, N-(4-cyano-2,6-diisopropylphenyl-carbamoyl)-4-(2-hydroxypropan-2-yl)furan-2-sulfonamide], the IC50 (Table 1) was < 1 µM.

Regarding `CC(C)c1cc(Cl)cc(C(C)C)c1NC(=O)NS(=O)(=O)c1ncc(C(C)(C)O)s1` [Compound 219, N-(4-chloro-2,6-diisopropylphenyl-carbamoyl)-5-(2-hydroxypropan-2-yl)thiazole-2-sulfonamide], under “Table 2”, the concentration for half-maximal inhibition (IC50) was < 1 µM.

For `CC(C)c1ccc(Cl)c(C(C)C)c1NC(=O)NS(=O)(=O)c1cc(C2(O)CC2)co1` [Compound 181, N-(3-chloro-2,6-diisopropylphenylcarbamoyl)-4-(1-hydroxycyclopropyl) furan-2-sulfonamide], the IC50 (Table 2) is < 1 µM.

Turning to `Cc1nc(S(=O)(=O)NC(=O)Nc2c(C(C)C)cc(C#N)cc2C(C)C)sc1C(C)(C)O` [Compound 155], the IC50 (Table 2) was 5 to 15 µM.

For the molecule `N#Cc1c2c(c(NC(=O)NS(=O)(=O)c3cc(C4(O)CC4)co3)c3c1CCC3)CCC2` [Compound 206, N-(8-cyano-1,2,3,5,6,7-hexahydros-indacen-4-ylcarbamoyl)-4-(1-hydroxycyclopropyl) furan-2-sulfonamide], the half-maximal inhibitory concentration (IC50) (Table 2) is < 1 µM.

Turning to `Cc1nc(S(=O)(=O)NC(=O)Nc2c(C(C)C)ccc(F)c2C(C)C)sc1C(C)(C)O` [Compound 150, N-(3-fluoro-2,6-diisopropylphenylcarbamoyl)-5-(2-hydroxypropan-2-yl)-4-methylthiazole-2-sulfonamide], the half-maximal inhibitory concentration (IC50) (Table 2) was < 1 µM.

Take `CC(C)c1cccc(C(C)C)c1NC(=O)NS(=O)(=O)c1ccc(C(C)(C)O)s1` [Compound 188, N-(2,6-diisopropylphenylcarbamoyl)-5-(2-hydroxypropan-2-yl) thiophene-2-sulfonamide]: the IC50 (Table 2) fell in the range of 1 to 5 µM.

In turn, `CC(C)c1ccc(F)c(C(C)C)c1NC(=O)NS(=O)(=O)c1nc(C(C)(C)O)cs1` [Compound 145, N-(3-fluoro-2,6-diisopropylphenylcarbamoyl)-4-(2-hydroxypropan-2-yl)thiazole-2-sulfonamide] came in with an IC50 (Table 2) of 1 to 5 µM.

The molecule `CC(C)c1ccc(F)c(C(C)C)c1NC(=O)NS(=O)(=O)c1cnc(C(C)(C)O)s1` [Compound 274] registered an IC50 (Table 2) of 5 to 15 µM.

In the case of `CC(C)c1ccc(C#N)c(C(C)C)c1NC(=O)NS(=O)(=O)c1ncc(C(C)(C)O)s1` [Compound 263, N-(3-cyano-2,6-diisopropylphenylcarbamoyl)-5-(2-hydroxypropan-2-yl) thiazole-2-sulfonamide], the 50% inhibitory concentration (IC50) (Table 2) lay in the range of 1 to 5 µM.

As to `Cc1nc(S(=O)(=O)NC(=O)Nc2c(C(C)C)cc(Cl)cc2C(C)C)sc1C(C)(C)O` [Compound 151, N-(4-chloro-2,6-diisopropylphenylcarbamoyl)-5-(2-hydroxypropan-2-yl)-4-methylthiazole-2-sulfonamide], the IC50 (Table 2) lay in the range of 1 to 5 µM.

Molecule `CCc1cccc(CC)c1NC(=O)NS(=O)(=O)c1cc(C(C)(C)O)cs1` [Compound 173, N-(2,6-diethylphenylcarbamoyl)-4-(2-hydroxypropan-2-yl)thiophene-2-sulfonamide] displayed an IC50 (Table 2) of 15 to 35 µM.

On to `CC(C)c1cccc(C(C)C)c1NC(=O)NS(=O)(=O)c1ncc(C(C)(C)O)s1` [Compound 261], for which, under “Table 2”, the IC50 is 1 to 5 µM.

`CC(C)(O)c1ccc(S(=O)(=O)NC(=O)Nc2c3c(c(F)c4c2CCC4)CCC3)s1` [Compound 176, N-(8-fluoro-1,2,3,5,6,7-hexahydros-indacen-4-ylcarbamoyl)-5-(2-hydroxypropan-2-yl) thiophene-2-sulfonamide]: the IC50 (Table 2) was < 1 µM.

On to `CC(C)c1ccc(Cl)c(C(C)C)c1NC(=O)NS(=O)(=O)c1cc(C(C)(C)O)cs1` [Compound 180, N-(3-chloro-2,6-diisopropylphenylcarbamoyl)-4-(2-hydroxypropan-2-yl)thiophene-2-sulfonamide], for which the half-maximal inhibitory concentration (IC50) (Table 2) is < 1 µM.

In the case of `CC(C)c1cc(Cl)cc(C(C)C)c1NC(=O)NS(=O)(=O)c1ccc(C2(O)CC2)s1` [Compound 196, N-(4-chloro-2,6-diisopropylphenylcarbamoyl)-5-(1-hydroxycyclopropyl) thiophene-2-sulfonamide], under “Table 2”, the half-maximal inhibitory concentration (IC50) is < 1 µM.

The molecule `CCc1cc(C#N)cc(CC)c1NC(=O)NS(=O)(=O)c1ncc(C(C)(C)O)s1` [Compound 158, N-(4-cyano-2,6-diethylphenylcarbamoyl)-5-(2-hydroxypropan-2-yl)thiazole-2-sulfonamide] registered an IC50 (Table 2) of 1 to 5 µM.

`CC(C)c1cc(C#N)cc(C(C)C)c1NC(=O)NS(=O)(=O)c1ccc(C2(O)CC2)s1` [Compound 194, N-(4-cyano-2,6-diisopropylphenylcarbamoyl)-5-(1-hydroxycyclopropyl) thiophene-2-sulfonamide]: for the setting “Table 2”, the IC50 lay within 1 to 5 µM.

On to `N#Cc1c2c(c(NC(=O)NS(=O)(=O)c3cc(C4(O)CC4)cs3)c3c1CCC3)CCC2` [Compound 223, N-(8-cyano-1,2,3,5,6,7-hexahydros-indacen-4-ylcarbamoyl)-4-(1-hydroxycyclo-propyl)thiophene-2-sulfonamide], for which the 50% inhibitory concentration (IC50) (Table 2) is < 1 µM.

Regarding `O=C(Nc1c2c(cc3c1CCC3)CCC2)NS(=O)(=O)c1ncc(C2(O)CCCCC2)s1` [Compound 193, N-(1,2,3,5,6,7-hexahydros-indacen-4-ylcarbamoyl)-5-(1-hydroxycyclohexyl) thiazole-2-sulfonamide], for the setting “Table 2”, the IC50 was 1 to 5 µM.

With `CC(C)(O)c1ccc(S(=O)(=O)NC(=O)Nc2c3c(c(Cl)c4c2CCC4)CCC3)s1` [Compound 189, N-(8-chloro-1,2,3,5,6,7-hexahydros-indacen-4-ylcarbamoyl)-5-(2-hydroxypropan-2-yl) thiophene-2-sulfonamide], the IC50 (Table 2) was < 1 µM.
